ChEMBL document CHEMBL1131737, “An efficient stereoselective synthesis of [3S(1S,9S)]-3-[[[9-(benzoylamino) octahydro-6,10-dioxo-6H-pyridazino-(1,2-a)(1,2)-diazepin-1-yl]-carbonyl ]amino]-4-oxobutanoic acid, an interleukin converting enzyme (ICE) inhibitor” (Bioorg Med Chem Lett, 1999)
Calls of active or inactive are those of the source. No cut-off for these calls is given here.

Target: T1, Caspase-1 (Homo sapiens) (UniProt P29466)
T1 sequence (whole entry): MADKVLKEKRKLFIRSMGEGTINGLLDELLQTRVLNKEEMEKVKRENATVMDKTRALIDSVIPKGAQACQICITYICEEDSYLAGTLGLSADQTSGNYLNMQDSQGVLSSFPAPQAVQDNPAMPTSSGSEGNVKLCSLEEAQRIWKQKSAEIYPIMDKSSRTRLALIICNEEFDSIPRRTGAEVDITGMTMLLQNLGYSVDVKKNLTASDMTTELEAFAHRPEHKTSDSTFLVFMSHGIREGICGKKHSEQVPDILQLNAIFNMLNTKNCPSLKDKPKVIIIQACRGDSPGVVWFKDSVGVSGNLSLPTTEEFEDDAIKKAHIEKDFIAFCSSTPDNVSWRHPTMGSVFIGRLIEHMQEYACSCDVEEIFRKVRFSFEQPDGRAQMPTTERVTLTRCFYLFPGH
Assay: Inhibitory activity against IL-1 beta converting enzyme; Active

Structure (SMILES): O=C[C@H](CC(=O)O)NC(=O)[C@@H]1CCCN2C(=O)CC[C@H](NC(=O)c3ccccc3)C(=O)N12
- Activity: Active
